Laboratory results taken from US4055640A, “Compositions and methods for controlling the growth of bacteria, fungi and algae using certain derivatives of N-(2,2-dichlorovinyl)salicylamides” (Nippon Kayaku Co., Ltd., priority 1975, dated 1977).

Tests used:
[1] = system: Fusarium wilt of cucumber; test: Exterminating test on Fusarium wilt of cucumber (Experimental Example 4); format: in vivo, Fusarium oxysporum f, cucumerinum; details: 500 ppm, soil drench 100 ml per pot, two weeks; for pest or weed control at 500 ppm: Fusarium, soil, 336 h, read-out: Percentage of healthy seedlings
Experimental: Exterminating test on Fusarium wilt of cucumber Twenty (20) grams of infected soil was added uniformly into each pot which was filled with steam sterilized field soil, then 18 seeds of cucumber (variety; Tokiwazibai) were sowed in each pot. Eighty percent (80%) wettable powder of the present invention was diluted with water to obtain a suspension, and each pot was drenched with the suspension in an amount of 100 ml. Fifty percent (50%) wettable powder of methyl-1-(butylcarbamoyl) 2-benzimidazol carbamate (hereinafter referred to as Benlate) on the market was used as a control and tested by the same method. After two weeks of planting, degrees attacked by the pathogen was observed and a "percentage of healthy seedlings" was calculated as follows: [formula]

[2] = system: summer orange seedlings; test: Phytotoxicity on summer orange seedlings (Experimental Example 6); format: in vivo; details: 1,000 ppm
Experimental: (§1) Exterminating test on citrus canker. 4-year-old summer orange seedlings, planted in unglazed pots having a diameter of 20 cm, were employed in this test. Eighty percent (80%) wettable powder of the present invention was diluted with water, and sprayed over the seedlings in an amount of 50 ml per pot. The leaves of the seedlings were inoculated Xanthomonas citri by means of a needle. After the inoculation, the seedlings were maintained in a moist chamber at 25° C for 24 hours. Then the pots were transferred into the greenhouse. Streptomycin 20% wettable powder was used as a control, and tested by the same method. After 2 weeks after the inoculation, degrees of disease attack were observed, and an "Effect Index" was calculated as follows: [formula]

[3] = system: Rhizoctonia solani (damping-off of cucumber); test: Exterminating test on damping-off of cucumber (Experimental Example 3); format: in vivo; details: soil drench 50 ml per pot, 10 days; for pest or weed control at 1000 ppm: Rhizoctonia solani, soil, 240 h, 1,000 ppm, read-out: Percentage of healthy seedlings
Experimental: Exterminating test on damping-off of cucumber
The pots (diameter, 12 cm) were filled with field soil and then soil infected by adding Rhizoctonia solani in an amount of 5 grams per pot uniformly into the pots. Thereafter, 10 seeds of cucumber (variety: Azumamidori) were sown in each pot.
Eighty percent (80%) wettable powder of the present invention was diluted with water to obtain a suspension and each pot was drenched with the suspension in an amount of 50 milliliters. Then, the pots were transferred to the greenhouse. Fifty percent (50%) wettable powder of pentachloronitro benzene (hereinafter referred to as PCNB) on the market was used as a control and tested by the same method. After 10 days of the inoculation, degrees attacked by the pathogen were observed and a "Percentage of healthy seedlings" was calculated. The "Percentage of healthy seedlings" was calculated as follows: [formula]

[4] = system: seedling blight of rice plant (pathogen Fusarium sp. and Rhizoctonia sp.); test: Exterminating test on seedling blight of rice plant (Experimental Example 1); format: in vivo; details: for Percentage of healthy seedlings at 0.25 g/box: soil, read-out: Percentage of healthy seedlings
Experimental: Exterminating test on seedling blight of rice plant Nursery boxes (60 × 30 × 3 cm) were filled with soil which were contaminated with pathogen (Fusarium sp. and Rhizoctonia sp.) The dust in which the present compound was contained in a ratio of 5% by weight was added in the box in a ratio of 5 grams per box and mixed well with soil. Thereafter, seeds of rice plant (variety: Nihonbare) were sowed in drills at a rate of 0.3 liter per box and grown up in a lighting chamber at 17° C. After 7 days from the sowing, the boxes were carried out in the field. Furthermore, 10 days thereafter the observations were made. Four percent (4%) dust of 3-hydroxy-5-methyl isoxazol (hereinafter referred to as hydroxyisoxazol) on the market was used as a control and tested by the same method. The test results are shown in Table 2 with a "percentage of healthy seedlings". The percentage of healthy seedlings was calculated as follows: […]

[5] = system: Xanthomonas citri (citrus canker); test: Exterminating test on citrus canker (Experimental Example 6); format: in vivo
Experimental: as §1

[6] = system: Aspergillus niger, Penicillium citrinum, Cladosporium harbarum and chaetomium globosum; test: Degree of growth inhibition of fungi on treated beach plates (Example 17); format: cell-based; set-up: scale not given here; details: numerical rating, 2 weeks
Experimental: The emulsifiable concentrates which were prepared by Example 10 were diluted with water 400 times and 800 times to form emulsions.
(§2) The square plates of beach of which a side was 5 cm long and thickness was 5 mm were dipped into the emulsion for 2 minutes and dried for 24 hours at room temperature.
(§3) The square plates were placed on the surface of agar plates. The suspensions which contained spores of Aspergillus niger, Penicillium citrinum, Cladosporium harbarum and chaetomium globosum were respectively sprayed on the agar plates and the square plates.
The test fungi were cultivated in the incubator at the humidity of 95% and the temperature of 28° C for 2 weeks.
The degree of growth inhibition is defined in terms of the following numerical ratings.

[7] = system: Cladosporium cucumerinum (cucumber scab); test: Exterminating test on cucumber scab (Experimental Example 2); format: in vivo; set-up: scale not given here; details: 500 ppm, 5 days after inoculation
Experimental: Exterminating test on cucumber scab
(§4) The cucumber seeds (variety: Sagamihanjiro) were sown in pots (diameter 18 cm). Eighty percent (80%) wettable powder (contents of active compound: 80%) of the present invention was diluted with water to obtain a suspension. The suspension was sprayed over the cucumber seedlings of the stage of 3-4 leaves in an amount of 20 ml per pot. After 24 hours, these pots were inoculated by means of spray of spore suspension of Cladosporium cucumerinum. The thus-inoculated seedlings were placed in a moist chamber at 20° C for 24 hours. The pots were continuously kept in a greenhouse at 20° C. The following wettable powders on the market were used as controls.
70% wettable powder of 1,2-bis (3-methoxy carbonyl-2-thioureid) benzene (hereinafter referred to as "thiophanate methyl") on the market.
75% wettable powder of ethylene bis (dithiocarbamic acid) manganese (hereinafter referred to as "maneb") on the market. After 5 days of the inoculation, degrees attached by the pathogen were observed and the results were shown in Table 3 with an "Infected Index". The "Infected Index" was calculated as follows: [formula] A : Number of leaves which were killed by hard attack B : Number of leaves severely attacked
C : number of leaves slightly attacked
D : number of healthy leaves

[8] = system: cucumber seedlings (variety: Sagamihanjiro); test: Phytotoxicity on cucumber seedlings (Experimental Example 2); format: in vivo; details: 500 ppm
Experimental: as §4

[9] = system: Aspergillus niger, Penicillium citrinum, Cladosporium harbarum and chaetomium globosum; test: Degree of growth inhibition of fungi on treated beach plates (Example 25); format: cell-based; set-up: scale not given here; details: numerical rating, 2 weeks
Experimental: The emulsifiable concentrates which were prepared by Example 20 were diluted with water 400 times and 800 times to form emulsions.
as §2, §3
The test fungi were cultivated in the incubator at the humidity of 95% and the temperature of 28° C for 2 weeks. The degree of growth inhibition is defined in terms of the following numerical ratings.

[10] = 408 h, 0.25g/box a.i., 5% dust mixed with soil

O=C(NC=C(Cl)Cl)c1cc(Br)ccc1O [compound 3]
pest or weed control at 500 ppm [1]: 62.4% | Phytotoxicity [2]: Nil | pest or weed control at 1000 ppm [3]: 70% | Percentage of healthy seedlings at 0.25 g/box [4, 10]: 65.3%

O=C(NC=C(Cl)Cl)c1ccccc1[O-].O=C(NC=C(Cl)Cl)c1ccccc1[O-].[Mn+2] [compound 28]
Effect Index ([5]; 1,000 ppm, 2 weeks after inoculation): 73.6 | Percentage of healthy seedlings [1]: 57.0% | Phytotoxicity [2]: Nil | Percentage of healthy seedlings ([3]; 1,000 ppm): 100% | Degree of growth inhibition ([6]; 0.0125 %): 3 | Degree of growth inhibition ([6]; 0.025 %): 3 | Percentage of healthy seedlings ([4]; 0.25g/box a.i., 5% dust mixed with soil): 73.0%

COc1ccccc1C(=O)NC=C(Cl)Cl [compound 15]
pest or weed control at 500 ppm [1]: 51.2% | Infected Index [7]: 8.9 | pest or weed control at 1000 ppm [3]: 60% | Phytotoxicity [8]: Nil | Percentage of healthy seedlings at 0.25 g/box [4, 10]: 70.2%

Cc1cc(O)no1 [Hydroxyisoxazol, 3-hydroxy-5-methyl isoxazol, reference compound]
Percentage of healthy seedlings at 0.2 g/box ([4]; 408 h, 0.20g/box a.i., 4% dust on the market (control)): 70.6%

CCCCCCCCCCCC(=O)Oc1ccccc1C(=O)NC=C(Cl)Cl [compound 12]
pest or weed control at 500 ppm [1]: 53.4% | pest or weed control at 1000 ppm [3]: 70% | Percentage of healthy seedlings at 0.25 g/box [4, 10]: 65%

O=C(NC=C(Cl)Cl)c1cccc([N+](=O)[O-])c1O [compound 31]
pest or weed control at 500 ppm [1]: 46% | pest or weed control at 1000 ppm [3]: 85% | Percentage of healthy seedlings at 0.25 g/box [4, 10]: 70.2%

Cc1cccc(C(=O)NC=C(Cl)Cl)c1O [compound 4]
pest or weed control at 500 ppm [1]: 68.7% | pest or weed control at 1000 ppm [3]: 90% | Percentage of healthy seedlings at 0.25 g/box [4, 10]: 76.6%

CC(C)COC(=O)Oc1ccccc1C(=O)NC=C(Cl)Cl [compound 18]
pest or weed control at 500 ppm [1]: 42% | pest or weed control at 1000 ppm [3]: 100% | Degree of growth inhibition ([9]; 0.0125 %): 2 | Degree of growth inhibition ([9]; 0.025 %): 3 | Percentage of healthy seedlings at 0.25 g/box [4, 10]: 72.1%

O=C(NC=C(Cl)Cl)c1ccccc1OC(=O)C(Cl)Cl [compound 14]
pest or weed control at 1000 ppm ([5]; Xanthomonas citri, 336 h, read-out: Effect Index, 1,000 ppm, 2 weeks after inoculation): 73.2% | pest or weed control at 500 ppm [1]: 62.8% | Infected Index [7]: 7.9 | Phytotoxicity [2]: Nil | pest or weed control at 1000 ppm [3]: 95% | Phytotoxicity [8]: Nil | Percentage of healthy seedlings at 0.25 g/box [4, 10]: 70.8%

CC(=O)Oc1c(Cl)cc(Cl)cc1C(=O)NC=C(Cl)Cl [compound 32]
pest or weed control at 500 ppm [1]: 73% | pest or weed control at 1000 ppm [3]: 75% | Percentage of healthy seedlings at 0.25 g/box [4, 10]: 69.8%
